Molecules are shown by their SMILES.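 Results reflect a 48-hour exposure of cells in 96-well plates to compound at five concentrations. GI50 is the concentration that inhibits growth by half. TGI: concentration producing complete growth inhibition.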 Peptide text beside a SMILES is read from it. * marks the point of attachment. OSu = O=C1CCC(=O)N1O*; OBn = c1ccc(CO*)cc1; Bn = c1ccc(C*)cc1

Assay in all cases: NCI-60 cell line screen, 48 h
Assay [1] has as its system PC-3 prostate.
In assay [2] the test system is SK-MEL-2 melanoma.
Assay [3] relates to BT-549 breast.
In assay [4] the test system is ACHN renal.
In assay [5] the test system is OVCAR-5 ovarian.
Assay [6] concerns HOP-92 NSCLC.
Assay [7] deals with A549 NSCLC.
In assay [8] the test system is SNB-19 CNS.
Assay [9] has as its system HS 578T breast.

With `c1ccc(-c2nc3ccccc3n3nnnc23)cc1`, the TGI in [1], in [2], in assay [3], in assay [4], in assay [5] and in assay [6] was more than 100 µM each time. The TGI in [7] and in [8] was more than 100 µM in each case.

For the compound `O=C(c1ccccc1)n1[nH]c(=O)n(-c2ccc(Cl)cc2)c1=O`, the TGI in assay [1], in assay [2], in [3], in [4], in assay [5] and in assay [9] was more than 100 µM in each case. Moreover, the TGI is more than 100 µM in assay [7] and 83.3 µM in assay [8].

As to `Cc1csc2n(C)c(=O)c3ccccc3[n+]12`, the TGI in [1], in assay [2], in assay [3], in assay [4], in assay [5] and in assay [9] was more than 100 µM throughout. The TGI in [7] and in assay [8] was more than 100 µM throughout.

Take `CC(C)CC(NC(=O)C(N)CCC(=O)OCc1ccccc1)C(=O)NC(COCc1ccccc1)C(=O)NC(Cc1ccccc1)C(=O)ON1C(=O)CCC1=O` (stereo unspecified) (H-E(OBn)LS(Bn)F-OSu; configuration not given here): the TGI in assay [1] was 63.2 µM; in [2] it was 65.6 µM; in assay [4], more than 100 µM; in [5], 66.9 µM; in assay [9] it was 76.1 µM; in [6] it was 39.8 µM. For the same compound, the TGI is more than 100 µM in assay [7] and 95.1 µM in assay [8].

Turning to `O=c1c(S(=O)(=O)Oc2ccccc2)coc2cc(F)ccc12`, the TGI in assay [1], in assay [2], in assay [3], in assay [4], in assay [5] and in assay [9] was more than 100 µM in each case. In addition, the TGI in assay [7] and in [8] was more than 100 µM each time.

In the case of `COc1cc([C@@H]2c3cc4c(cc3[C@@H](Nc3ccc(NC(=O)c5cc(NC(=O)c6cc([N+](=O)[O-])cn6C)cn5C)cc3)[C@H]3COC(=O)[C@H]23)OCO4)cc(OC)c1O`, the TGI in assay [2] is more than 100 µM; in [3] it was more than 100 µM; in [4] it was 12.1 µM; in assay [5], 99.6 µM; in assay [9] it was more than 100 µM; in [6], more than 39.2 µM. The figures for the TGI in assay [7] and in assay [8] were more than 49.9 µM and more than 55.1 µM, respectively.

With `Cc1nn(-c2ccccc2)c2c1N=C(C(=O)O)CC(c1ccccc1)=N2`, the TGI in assay [1], in [3], in assay [4], in assay [9], in assay [6] and in assay [7] was more than 10 µM each time. Further, the TGI in [8] is more than 10 µM.

Take `CCOC(=O)O/N=C1/C(c2c(O)[nH]c3ccccc23)=Nc2ccccc21`: the TGI in assay [2] is 8.18 µM; in assay [3] it was 31.7 µM; in assay [4], 33.1 µM; in [5] it was 56.2 µM; in assay [9] it was 51.8 µM; in [6] it was more than 100 µM. Further, the TGI came to 33.1 µM in [7] and 95.1 µM in assay [8].

`S=C1CSc2c(cnc3ccccc23)N1`: the TGI in assay [1], in assay [3], in assay [4], in assay [5], in assay [9] and in assay [7] was more than 100 µM each time. The same compound registered a TGI in assay [8] of more than 100 µM.

Take `O=C1C=C(NCCc2cc(Br)c(O)c(Br)c2)C(=O)c2[nH]cnc21`: the TGI in assay [1] is more than 100 µM; in assay [2], more than 100 µM; in assay [4], more than 100 µM; in [5] it was 67.2 µM; in [6], 82.3 µM; in assay [7], more than 100 µM. In assay [8], the TGI is more than 100 µM.

As for `CCc1cc2c(oc3c4ccccc4ccc23)c(=O)[nH]1`, the TGI in assay [1], in assay [3], in assay [4], in assay [5], in assay [9] and in assay [6] was more than 10 µM each time. Besides, the TGI in assay [7] and in assay [8] was more than 10 µM throughout.

Consider `Cc1ccnc2sc3ccccc3c(=O)c12`, for which the TGI in assay [1] is more than 100 µM; in assay [2], more than 100 µM; in assay [3] it was more than 100 µM; in [4], more than 100 µM; in assay [5], more than 100 µM; in assay [9] it was 77.6 µM. Also, the TGI in [6] and in assay [8] was more than 100 µM each time.

As to `CCCCNCC(O)c1cc(-c2ccc(C(F)(F)F)cc2)nc(-c2ccc(C(F)(F)F)cc2)c1` (stereo unspecified), the GI50 in assay [1] was 1.52 µM; in assay [2], 2.46 µM; in [7], 1.64 µM. The values for the TGI in assay [1], in assay [2] and in assay [7] were 3.05 µM, 4.33 µM and 3.36 µM, respectively.

Regarding `O=C1C(CN2CCCC2)CCCC1CN1CCCC1` (stereo unspecified), the TGI stood at 32.3 µM in assay [1]; 37.4 µM in [2]; 3.62 µM in assay [3]; 3.42 µM in assay [4]; 13.2 µM in assay [5]; 72.6 µM in [9]. Further, the TGI in assay [7] is 39.3 µM; in [8] it was more than 100 µM.

As to `O=Cc1cc(O)c(O)c(/C=N/n2c3ccccc3c3ccccc32)c1`, the TGI in [1] is 28.7 µM; in assay [3], 12.4 µM; in assay [4], 21.1 µM; in [5], 49 µM; in [9], more than 100 µM; in assay [6], 9.23 µM. Also, the TGI in assay [7] and in assay [8] was more than 100 µM each time.

In the case of `Clc1cccc(N=C/C=C/Nc2cccc(Cl)c2)c1`, the TGI was 28.4 µM in assay [1]; 33.2 µM in [3]; 59.9 µM in [5]; more than 100 µM in assay [9]; more than 100 µM in assay [6]; 83.9 µM in assay [7].

The record behind these values is PubChem BioAssay (NCI).
